As usually defined, the EC50 is the concentration giving half of the maximal effect. In general, Emax refers to the size of the effect at its maximum, as opposed to the concentration needed.

The values below come from patent publication US8853237B2, “Naphthyridinone analogs as mGluR5 positive allosteric modulators” (Vanderbilt University, priority 2010, dated 2014).

For one experiment, the target named is human mGluR5a receptor (Homo sapiens, UniProt P41594). Nature of the experiment: Cell-based functional assay: Ca2+ mobilization (FDSS), potentiation of glutamate EC20 response. The conditions noted are these: for EC50: HEK cells (H10H or H12H) transfected with human mGluR5, in presence of EC20 glutamate, >10 uM estimated where no plateau but >20% increase; for Emax: maximum average response at a single concentration, as percent of maximal glutamate response. Here is the method: Table 1 below lists specific compounds as well as experimentally determined mGluR5 activity determined in a cell-based assay. The mGluR5 activity was determined using the metabotropic glutamate receptor activity assays in human embryonic kidney cells as described herein, wherein the human embryonic kidney cells were transfected with human mGluR5. The compounds in Table 1 were synthesized with methods identical or analogous to those shown herein. The column labeled “Rxn” and the data thereunder indicated in Table 1 refers to the Reaction Scheme number described above. The requisite starting materials were commercially available, described in the literature, or readily synthesized by one skilled in the art of organic synthesis.
Human mGluR5a cDNA in pCMV6-XL6 mammalian expression plasmid was purchased from OriGene Technologies, Inc. (catalogue number SC326357) and subcloned into pcDNA3.1(−). Human embryonic kidney (HEK)293A cells were then transfected with human mGluR5a pcDNA3.1(−) using LipofectAmine2000 (Invitrogen) and monoclones were selected and tested for functional response using a Ca^2+ mobilization assay. Monoclones were named for the species (“H” for human) plus the location on the plate (e.g. “10H”).
HEK cells transfected with the human mGluR5a receptor (H10H or H12H cell line) were plated at 15,000 cells/well in clear-bottomed poly-D-lysine-coated assay plates (BD Falcon) in glutamate-glutamine-free growth medium and incubated overnight at 37° C. and 5% CO2. Cell-lines used were either the H10H or H12H cell-lines expressing the human mGluR5 receptor. The following day, the growth medium was removed and the cells were washed with assay buffer containing 1× Hank's balanced salt solution (Invitrogen, Carlsbad, Calif.), 20 mM HEPES, 2.5 mM probenecid, pH 7.4 and left with 20 μL of this reagent. Following this step, the cells were loaded with calcium indicator dye, fluo-4 AM, to a final concentration of 2 μM and incubated for 40-45 min at 37° C. The dye solution was removed and replaced with assay buffer. Cell plates were held for 10-15 min at room temperature and were then loaded into the Functional Drug Screening System 6000 (FDSS 6000, Hamamatsu, Japan).
After establishment of a fluorescence baseline for about 3 seconds, the compounds of the present invention were added to the cells, and the response in cells was measured. 2.3 minutes later an EC20 concentration of the mGluR5 receptor agonist glutamate was added to the cells, and the response of the cells was measured for about 1.7 minutes. All test compounds were dissolved and diluted to a concentration of 10 mM in 100% DMSO and then serially diluted into assay buffer for a 2× stock solution in 0.6% DMSO; stock compounds were then added to the assay for a final DMSO concentration of 0.3% after the first addition to the assay well. Calcium fluorescence measures were recorded as fold over basal fluorescence; raw data was then normalized to the maximal response to glutamate. Potentiation of the agonist response of the mGluR5 receptor in the present invention was observed as an increase in response to submaximal concentrations of glutamate in the presence of compound compared to the response to glutamate in the absence of compound.
The concentration-response curves of compounds of the present invention, obtained in the presence of EC20 of mGluR5 receptor agonist glutamate to determine positive allosteric modulation, were generated using Microsoft Excel with IDBS XLfit add-ins. The raw data file containing all time points was used as the data source in the analysis template. This was saved by the FDSS as a tab-delimited text file. Data were normalized using a static ratio function (F/F0) for each measurement of the total 350 values per well divided by each well's initial value. Data was then reduced as to peak amplitudes (Max—Initial Min) using a time range that starts approximately 1 second after the glutamate EC20 addition and continues for approximately 40 seconds. […]

Experiment [1] concerns amphetamine-induced hyperlocomotion. Nature of the experiment: Reversal of amphetamine-induced hyperlocomotion. Type of experiment: in vivo, male Sprague-Dawley rats. The note with it: 10 mg/kg, vehicle 20% HP-beta-CD; amphetamine 1 mg/kg sc; rat. Here is the method: Locomotor activity was assessed as mean distance traveled (cm) in standard 16×16 photocell testing chambers measuring 43.2 cm (Length)×43.2 cm (Width)×30.5 cm (Height) (Med Associates, St. Albans, Vt.). Animals were habituated to individual activity chambers for at least 30 min prior to drug administration. Following administration of drug or vehicle, activity was recorded for a […] time period. Data was expressed as the mean (±SEM) distance traveled recorded in 5 min intervals over the test period. The data were analyzed using repeated measures analysis of variance (ANOVA) followed by post-hoc testing using Dunnett's test, when appropriate. A difference was considered significant when p≦0.05. Amphetamine sulfate was obtained from Sigma (Cat#A5880-1G; St. Louis, Mo.) and 10 mg was dissolved in 10 ml of water. Test compound, 2-((3-fluorobenzyl)oxy)-7,8-dihydro-1,6-naphthyridin-5(6H)-one, was formulated in a volume of 10 ml with an amount of drug appropriate to the dosage indicated. […] At 60 min, all rats were injected subcutaneously with 1 mg/kg amphetamine or vehicle and then monitored for an additional 60 min. Animals are monitored for a total of 120 minutes. Data are expressed as changes in ambulation defined as total number of beam breaks per 5 min periods. The data for the dose-response studies were analyzed by a between-group analysis of variance. […]

The structures appear in SMILES notation.

human mGluR5a receptor, sequence (P41594 21-1180 isoform P41594-2 limits assumed): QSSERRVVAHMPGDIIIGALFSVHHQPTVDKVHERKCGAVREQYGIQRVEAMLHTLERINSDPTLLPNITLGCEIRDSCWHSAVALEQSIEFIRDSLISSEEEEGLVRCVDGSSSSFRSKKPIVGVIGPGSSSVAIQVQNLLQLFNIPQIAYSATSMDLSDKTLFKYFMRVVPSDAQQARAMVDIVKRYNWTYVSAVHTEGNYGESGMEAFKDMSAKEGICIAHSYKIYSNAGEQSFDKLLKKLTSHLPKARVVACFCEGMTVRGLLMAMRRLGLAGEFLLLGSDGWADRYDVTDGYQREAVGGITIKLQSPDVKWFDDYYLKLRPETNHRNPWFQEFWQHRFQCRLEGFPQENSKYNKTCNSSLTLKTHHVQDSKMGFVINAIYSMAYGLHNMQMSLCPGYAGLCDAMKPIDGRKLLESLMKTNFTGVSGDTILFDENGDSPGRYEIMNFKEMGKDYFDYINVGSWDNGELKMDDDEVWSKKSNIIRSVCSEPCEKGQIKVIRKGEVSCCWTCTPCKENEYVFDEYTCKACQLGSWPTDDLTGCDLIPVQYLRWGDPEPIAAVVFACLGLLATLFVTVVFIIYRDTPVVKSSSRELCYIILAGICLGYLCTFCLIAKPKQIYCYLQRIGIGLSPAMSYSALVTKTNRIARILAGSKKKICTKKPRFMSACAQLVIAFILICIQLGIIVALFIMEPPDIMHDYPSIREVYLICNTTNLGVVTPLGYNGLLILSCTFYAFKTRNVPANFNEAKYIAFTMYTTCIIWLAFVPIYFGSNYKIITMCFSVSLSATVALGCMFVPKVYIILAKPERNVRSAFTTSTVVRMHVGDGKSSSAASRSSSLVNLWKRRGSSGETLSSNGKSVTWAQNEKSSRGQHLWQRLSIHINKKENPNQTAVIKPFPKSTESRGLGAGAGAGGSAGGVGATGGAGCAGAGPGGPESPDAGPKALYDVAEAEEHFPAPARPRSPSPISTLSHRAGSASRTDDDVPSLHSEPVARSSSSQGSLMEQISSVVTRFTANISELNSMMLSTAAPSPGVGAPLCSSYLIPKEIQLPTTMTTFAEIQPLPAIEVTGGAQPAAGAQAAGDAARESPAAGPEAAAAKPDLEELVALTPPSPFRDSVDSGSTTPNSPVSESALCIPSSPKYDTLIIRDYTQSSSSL

`O=C1NCCc2nc(OCc3ccccc3F)ccc21` [compound 10]: on human mGluR5a receptor, the concentration giving a half-maximal response (EC50) was 700 nM and the maximal response (Emax) turned out to be 79%.

For `COc1ccc(CN2CCc3nc(OCc4cccc(F)c4)ccc3C2=O)cc1C(F)(F)F` [compound 3], on human mGluR5a receptor, the concentration giving a half-maximal response (EC50) was > 10000 nM and the maximal effect (Emax) is 40%. The matching figures for `O=C1NCCc2nc(OCc3cccc(Cl)c3)ccc21` [compound 9]: 190 nM and 55%. The matching figures for `O=C1c2ccc(COc3cccc(F)c3)nc2CCN1c1ccc(F)cn1` [compound 7]: 360 nM and 66%. Turning to `O=C1c2cc(OCc3ccccc3)cnc2CCN1c1cccnc1` [compound 19], the concentration for a half-maximal effect (EC50) at human mGluR5a receptor was > 30000 nM. With `O=C1c2ccc(OCc3cccc(F)c3)nc2CCN1CC1CCC1` [compound 11], on human mGluR5a receptor, the EC50 is 630 nM and the maximal response (Emax) was 39%. As for `O=C1c2cc(OCc3ccccc3)cnc2CCN1CC1CCC1` [compound 22], at human mGluR5a receptor, the 50% effective concentration (EC50) is 2760 nM and the Emax worked out at 52%.

Consider `COc1ccc(CN2CCc3ncc(COc4cccc(F)c4)cc3C2=O)cc1` [compound 12], for which, on human mGluR5a receptor, the EC50 was 1600 nM and the Emax was found to be 64%. For `O=C1c2ccc(OCc3ccccc3)nc2CCN1c1ccc(F)cc1` [2-(benzyloxy)-6-(4-fluorophenyl)-7,8-dihydro-1,6-naphthyridin-5(6H)-one], the “apparent reversal of amphetamine-induced hyperlocomotion” value in experiment [1] turned out to be 35%. On to `O=C1c2cc(OCc3ccccc3)cnc2CCN1c1ccc(F)cc1` [compound 21], for which, at human mGluR5a receptor, the half-maximal effective concentration (EC50) was > 10000 nM and the Emax turned out to be 34%. The matching figures for `O=C1c2ccc(OCc3cccc(F)c3)nc2CCN1Cc1cccc(Cl)c1F` [compound 2]: 4200 nM and 39%. The matching figures for `O=C1c2ncc(COc3ccccc3)cc2CCN1c1ccc(F)cc1` [compound 8]: 730 nM and 76%.

Regarding `O=C1c2ccc(OCc3ccccc3)nc2CCN1c1ccc(F)cc1` [compound 23], on human mGluR5a receptor, the EC50 is 125 nM and the Emax came out at 66%.

Turning to `O=C1c2ccc(OCc3ccccc3)nc2CCN1CC1CCC1` [compound 24], at human mGluR5a receptor, the concentration for a half-maximal effect (EC50) is 441 nM and the maximal response (Emax) was determined as 49%. Taken in the same sequence, the figures for `O=C1c2ccc(COc3cccc(F)c3)nc2CCN1c1ccc(F)cc1` [compound 6] were 200 nM and 72%. The matching figures for `COc1ccc(CN2CCc3ncc(OCc4ccccc4)cc3C2=O)cc1` [compound 14]: > 10000 nM and 46%.

For the compound `CN1CCc2ncc(COc3cccc(F)c3)cc2C1=O` [compound 13], on human mGluR5a receptor, the 50% effective concentration (EC50) was > 10000 nM and the Emax was 44%. Turning to `O=C1NCCc2cc(COc3ccccc3)cnc21` [compound 25], on human mGluR5a receptor, the EC50 was > 30000 nM and the Emax came to 43%. Taken in the same sequence, the figures for `O=C1NCCc2nc(OCc3cccc(F)c3)ccc21` [compound 1] were 370 nM and 71%.

On to `C[C@H](N1CCc2cc(COc3ccccc3)cnc2C1=O)C(C)(C)C` [compound 27], for which, at human mGluR5a receptor, the half-maximal effective concentration (EC50) was > 30000 nM and the maximal response (Emax) amounted to 15%. On to `O=C1NCCc2ncc(OCc3ccccc3)cc21` [compound 15], for which, at human mGluR5a receptor, the 50% effective concentration (EC50) was > 10000 nM and the Emax was 43%. Taken in the same sequence, the figures for `CN1CCc2cc(COc3ccccc3)cnc2C1=O` [compound 26] were > 30000 nM and 21%. Taken in the same sequence, the figures for `O=C1c2ccc(OCc3cccc(F)c3)nc2CCN1c1cccc(F)c1` [compound 4] were 980 nM and 41%. Taken in the same sequence, the figures for `O=C1c2cc(OCc3ccccc3)cnc2CCN1c1ccc(F)cc1F` [compound 18] were > 10000 nM and 67%. In the case of `O=C1c2cc(OCc3ccccc3)cnc2CCN1c1ccccn1` [compound 17], on human mGluR5a receptor, the EC50 was > 30000 nM. Consider `O=C1c2ccc(OCc3cccc(F)c3)nc2CCN1c1ccc(F)cn1` [compound 5], for which, on human mGluR5a receptor, the EC50 is > 10000 nM and the Emax was found to be 40%. In the case of `Cc1cccc(N2CCc3ncc(OCc4ccccc4)cc3C2=O)n1` [compound 20], on human mGluR5a receptor, the EC50 was > 30000 nM.
